The results in this text go back to patent publication US12616713B2, “Methods for enhancing vascular density” (priority 2016, dated 2026).

Test [1] deals with MLECs from WT and ESKO mice. As to the kind of experiment: Apoptosis of serum-starved MLECs (Annexin V/PI). In kind it is cell-based, mouse. The conditions noted are these: serum-starved overnight, SIRT1-dependent. How it is done: FIG. 38 is (A) a graph showing quantification of the relative cell number (n=12) of HUVECs incubated with PBS or NMN (0.5 mM) for 48 h in complete growth medium and cell number determined using flow cytometry. (B) a graph showing the number of apoptotic cells (Annexin V+/PI−) (n=12) when MLECs from WT and ESKO mice were serum-starved overnight, then assessed for apoptosis by Annexin V/PI staining and analyzed using flow cytometry. Data are expressed as mean±SEM. *p<0.05, **p<0.005, ***p<0.0005, ^δp<0.00005 by Student's t test (A), or two-way (B) ANOVA with Bonferroni's Multiple Comparisons Tests. (C) a schematic diagram of a model of how SIRT1 promotes sprouting angiogenesis. […]
HUVECs were treated with PBS (vehicle), NaHS (100 μM), NMN (500 μM) or NMN+NaHS for 6 h, followed by exposure to H2O2 (600 μM) for another 4 h. After treatments, the number of apoptotic cells was determined using Annexin V-FITC apoptosis detection kit (eBioscience) as per manufacturer's instructions. […] After mixing gently, the fluorescence intensity was detected with a flow cytometry (FACSCanto II Analyzer, BD Biosciences) at emission at 530 nm and 575 nm and excitation at 488 nm. Annexin-V and PI staining were detected with a flow cytometry (FACSCanto II Analyzer, BD Biosciences) at emission at 530 nm and 575 nm and excitation at 488 run.

The subject of a further test is Notch signaling. As to the kind of experiment: Notch target genes and NICD in VEGF- or Dll4-stimulated HAECs. In kind it is cell-based, human. How it is done: Dll4 and VEGF stimulation of ECs. The ECs to be stimulated were serum-starved overnight and transferred to media containing VEGF (50 ng/mL) or to Dll4-coated plates, and then incubated for indicated time. Dll4 coating was performed as described before (Guarani et al., 2011, Nature 473, 234-238). Lyophilized recombinant Dll4 (R&D Systems) were reconstituted in PBS containing 0.1% bovine serum albumin. The culture dishes were coated with Dll4 (0.5 μg/mL) in 0.1 gelatin solution for 1 hr at 37° C.
Total mRNA was isolated from cells and tissues using TRIzol (Life Technologies). cDNAs were synthesized from 1 μg of total RNA using M-MLV reverse transcriptase (Biorad). qPCR was performed with LightCycler […] SYBR Green I Mastermix (Roche) using the LightCycler 480 System (Roche) according to the manufacturer's instructions. Relative mRNA expression levels were calculated using the ΔΔCt method.
SDS-PAGE and Western blot analysis were performed according to standard procedures and detected with the ECL detection kit (Bio-rad, Australia). […] Quantification of band intensities by densitometry was carried out using ImageJ software.

Test [2] relates to human aortic endothelial cells (HAECs). The test is described as follows: Tube formation assay, HAECs. In kind it is cell-based. How it is done: Formation of tube networks was assessed as described before (Borradaile and Pickering, 2009, Aging Cell 8, 100-112). ECs were seeded at 10,000 cells per well in a 24-well plate (Corning) coated with 150 μL Cultrex reduced growth factor basement membrane extract (Trevigen). The cells were supplemented with C2C12 CM or EBM-2 medium containing VEGF (30 ng/mL) or FGF (30 ng/mL). […] Following an 18 h-incubation, resulting tube networks were analyzed by light microscopy (Nikon Eclipse TiE). For tube formation assays with H2O2 treatment, cells were incubated with 150 μM H2O2 for 1 h before seeding and imaged after 10 h-incubation. The number of branch points and total length of tubule networks were quantified by ImageJ software.

In another test the test system is HUVECs. As to the kind of experiment: Seahorse analysis of oxygen consumption rate. In kind it is cell-based, human. The note with it: NaHS 100 μM, NMN 500 μM. How it is done:
Oxygen consumption rates were measured in accordance with manufacturer instructions using Seahorse XF96 analyzer (Seahorse Bioscience). Briefly, 40,000 HUVECs were plated onto XF96 plates and incubated overnight at 37° C./5% CO2. Next day, the media was replaced with XF assay media (DMEM), supplemented with glucose (1 g/L), glutamate (2 mM) and pyruvate (1 mM) and the pH was adjusted to 7.4. NaHS (100 μM) and/or NMN (500 μM) were added at the start of the experiment. Oxygen consumption measurements were made approximately every 8 minutes under basal conditions, and after the addition of oligomycin (1 μM). Experiments were replicated in six wells and averaged for each experimental condition.

The test system of another test is C57BL/6J mice. As to the kind of experiment: Post-exercise blood lactate. The conditions noted are these: 20-month old mice. In kind it is in vivo, mouse. How it is done: Mice were fasted for 6 h and blood glucose levels were measured by tail bleed (Accu Check Performa, Roche). Blood lactate was measured before and immediately after treadmill exercise training for 20 minutes at 15 meters/minute by tail bleed (Accutrend Plus, Roche). For VEGF analysis, whole blood was drawn from the retroorbital sinus under brief isoflurane anesthesia. The serum was collected and assayed for VEGF expression by ELISA (Eve Technologies, Canada). Urine was collected after a 2 h fast and analyzed for creatinine levels using a colorimetric assay kit (Cayman chemical, US) as per manufacturer's protocol.

Where [3] appears, read: NMN and VEGF (30 ng/mL) cotreatment of HAECs, compared to VEGF alone.

Molecules are shown by their SMILES.

Regarding `NC(=O)c1ccc[n+]([C@@H]2O[C@H](COP(=O)([O-])O)[C@@H](O)[C@H]2O)c1` [NMN, nicotinamide mononucleotide], the “apoptosis in ECs (Annexin V+/PI-)” value in test [1] is “reduced apoptosis”. For the same compound, in the test on Notch signaling (VEGF- or Dll4-stimulated HAECs, NMN 0.5 mM), the NICD protein levels result is reported as “promoted NICD reduction”. The “Notch target gene expression” value in the test on Notch signaling (after stimulation with VEGF (50 ng/mL) or Dll4, NMN 0.5 mM) is listed as “significantly decreased”. Moreover, the “number of branch points and total length of tubes” value in test [2] (NMN 10 μM, 100 μM or 500 μM versus PBS) is “steadily increased”. Also, in test [2] (setting [3]), the “increase in number of branch points” value is given as 32% and the “increase in tubule length” value amounted to 15%. Further, the “increase in number of branch points” value in test [2] (NMN itself, without VEGF) is on record as 25%. The “ability of NMN to stimulate tube formation, dependence on SIRT1” value in test [2] (NT or SIRT1 siRNA, VEGF 30 ng/mL, NMN 0.5 mM) was “SIRT1-dependent”. The “effects of NMN on VEGF-mediated tube formation after knockdown of SIRT1” value in test [2] (Scr or SIRT1 siRNA, NMN 500 μM) is “completely blocked by knockdown of SIRT1”. In addition, the “VEGF-mediated tube formation after knockdown of SIRT3 and SIRT6” value in test [2] (T3 or T6 siRNA, VEGF 30 ng/mL, +/- NMN) is “partially rescued”. In addition, the disintegration of tubes entry in test [2] (time-lapse videos, extended 18 h period) was “prevented the disintegration of tubes”. Also, the “basal OCR” value in the test with HUVECs was “had no effect”. The same compound came in with a post-exercise blood lactate in the test with C57BL/6J mice of 3.9 mmol/L.
